# Where a name gives a salt, the structure may show the parent alone.
# Columns and labels:
# [1] = molecular target: T1, M3 muscarinic receptor subtype (Homo sapiens, UniProt P20309); test: Radioligand binding assay ([3H]-NMS displacement, CHO cell membranes); conditions: tested in this or a similar assay
# T1 construct: expressed in transfected cells; crude membranes prepared in house
# Experimental: CHO cell lines stably expressing cloned human hM1, hM2, hM3 and hM4 muscarinic receptor subtypes, respectively, were grown to near confluency in medium consisting of HAM's F-12 supplemented with 10% FBS and […]. The cells were grown in a 5% CO2, 37° C. incubator and lifted with 2 mM EDTA in dPBS. Cells were collected by 5 minute centrifugation at 650×g, and cell pellets were either stored frozen at −80° C. or membranes were prepared immediately. For membrane preparation, cell pellets were resuspended in lysis buffer and homogenized with a Polytron PT-2100 tissue disrupter (Kinematica AG; 20 seconds×2 bursts). Crude membranes were centrifuged at 40,000×g for 15 minutes at 4° C. […] The protein concentration of the membrane suspension was determined by the method described in Lowry, O. et al., […] 193:265 (1951). […]
# Radioligand binding assays were performed in 96-well microtiter plates in a total assay volume of 100 μL. […] Filter plates were rinsed three times with wash buffer (10 mM HEPES) to remove unbound radioactivity. […] The plates were then counted in a PerkinElmer Topcount liquid scintillation counter (PerkinElmer Inc., Wellesley, Mass.). Binding data were analyzed by nonlinear regression analysis with the GraphPad Prism Software package (GraphPad Software, Inc., San Diego, Calif.) using the one-site competition model. […]
# [2] = Differential scanning calorimetry (DSC), thermal decomposition; format: physicochemical; conditions: heating ramp 10° C./min
# Experimental: DSC was performed using a TA Instruments Model Q-10 module with a Thermal Analyst controller, and data were collected and analyzed using TA Instruments Thermal Solutions software. A sample of about 1 mg of the crystalline diacetate salt was accurately weighed into an aluminum pan with lid, and evaluated using a linear heating ramp of 10° C./min from ambient temperature to approximately 300° C. The DSC cell was purged with dry nitrogen during use. A representative DSC trace for this salt is shown in FIG. 2 and depicts one transition at about 114° C., no thermal decomposition below about 160° C., and maximum endothermic heat flow at about 112° C.
# [3] = Dynamic moisture sorption (DMS) assessment; format: physicochemical; conditions: exposed to up to 90% RH
# Experimental: A dynamic moisture sorption (DMS) assessment (also known as a moisture sorption-desorption profile) was performed for samples of the crystalline diacetate salt using a VTI atmospheric microbalance, SGA-100 system (VTI Corp., Hialeah, Fla. 33016). A sample size of approximately 10 mg was used and the humidity was set at the ambient value at the start of the analysis. A typical DMS analysis consisted of three scans: ambient to 2% relative humidity (RH), 2% RH to 90% RH, 90% RH to 5% RH at a scan rate of 5% RH/step. The mass was measured every two minutes and the RH was changed to the next value (+/−5% RH) when the mass of the sample was stable to within 0.01% for 5 consecutive points.
# T1 sequence (P20309 whole entry): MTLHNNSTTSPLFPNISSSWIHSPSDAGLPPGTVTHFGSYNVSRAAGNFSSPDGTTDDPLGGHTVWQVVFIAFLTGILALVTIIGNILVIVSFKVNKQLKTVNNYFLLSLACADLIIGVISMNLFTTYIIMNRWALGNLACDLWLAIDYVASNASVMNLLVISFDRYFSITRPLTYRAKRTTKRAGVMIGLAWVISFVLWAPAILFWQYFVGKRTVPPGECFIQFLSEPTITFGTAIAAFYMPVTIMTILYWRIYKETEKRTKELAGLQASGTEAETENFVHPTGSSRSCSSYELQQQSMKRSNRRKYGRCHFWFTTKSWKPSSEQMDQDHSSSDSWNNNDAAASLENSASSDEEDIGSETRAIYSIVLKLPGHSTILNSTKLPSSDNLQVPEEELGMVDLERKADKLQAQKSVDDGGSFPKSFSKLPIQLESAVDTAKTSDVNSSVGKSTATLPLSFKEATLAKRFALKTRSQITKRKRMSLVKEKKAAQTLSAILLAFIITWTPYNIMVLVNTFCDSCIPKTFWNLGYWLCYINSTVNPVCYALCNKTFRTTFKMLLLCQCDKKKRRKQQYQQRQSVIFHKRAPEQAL
Ki [1],no thermal decomposition below (DSC trace) [2],weight gain in DMS (reversible sorption/desorption profile) [3],Structure (SMILES)
< 5 nM,–,–,"CN(CCN1CCC(OC(=O)Nc2ccccc2-c2ccccc2)CC1)C(=O)c1cccc(C(=O)NCCNCc2ccc(O)cc2)c1 [Example 1, Biphenyl-2-ylcarbamic Acid 1-[2-({3-[2-(4-Hydroxybenzylamino)ethylcarbamoyl]benzoyl}methylamino)ethyl]piperidin-4-yl Ester]"
–,≥ 160 °C,less than 18%,"CN(CCN1CCC(OC(=O)Nc2ccccc2-c2ccccc2)CC1)C(=O)c1cccc(C(=O)NCCNCc2ccc(O)cc2)c1 [crystalline diacetate salt, biphenyl-2-ylcarbamic acid 1-[2-({3-[2-(4-hydroxybenzylamino)ethylcarbamoyl]benzoyl}methylamino)ethyl]piperidin-4-yl ester]"
–,≥ 150 °C,less than 11%,"CN(CCN1CCC(OC(=O)Nc2ccccc2-c2ccccc2)CC1)C(=O)c1cccc(C(=O)NCCNCc2ccc(O)cc2)c1 [crystalline dipropionate salt, Biphenyl-2-ylcarbamic Acid 1-[2-({3-[2-(4-Hydroxybenzylamino)ethylcarbamoyl]benzoyl}methylamino)ethyl]piperidin-4-yl Ester]"
–,≥ 150 °C,less than 14%,"CN(CCN1CCC(OC(=O)Nc2ccccc2-c2ccccc2)CC1)C(=O)c1cccc(C(=O)NCCNCc2ccc(O)cc2)c1 [crystalline monooxalate salt, Biphenyl-2-ylcarbamic Acid 1-[2-({3-[2-(4-Hydroxybenzylamino)ethylcarbamoyl]benzoyl}methylamino)ethyl]piperidin-4-yl Ester]"

# Source: patent US8124627B2, “Biphenyl compounds useful as muscarinic receptor antagonists” (Theravance, Inc., priority 2005, dated 2012)
